Measurements taken from patent publication US5861480A, “Antimicrobial proteins from aralia and impatiens” (Zeneca Limited, priority 1994, dated 1999).

What was measured:
Type in all cases: cell-based
[1] = system: Verticillium dahliae MUCL 19210; test: Antifungal activity assay (microspectrophotometry), V dahliae; details: Medium A (1/2 PDB), 48 h
[2] = system: Fusarium moniliforme FM-9; test: Antifungal activity assay (microspectrophotometry), F moniliforme; details: Medium A (1/2 PDB), 48 h
[3] = system: Escherichia coli strain HB101; test: Antibacterial activity assay (microspectrophotometry), E coli; details: bacterial suspension in soft nutrient agarose, 24 hours at 28° C.
[4] = system: Saccharomyces cerevisiae JRY188; test: Anti-yeast activity assay, S cerevisiae
[5] = system: Cercospora beticola strain K897; test: Antifungal activity assay (microspectrophotometry), C beticola; details: Medium A (1/2 PDB), 48 h
[6] = system: P digitatum (Penicillium dipitatum (K0879)); test: Antifungal activity assay (microspectrophotometry), P digitatum; details: 48 h
[7] = system: C sphaerospermum (Cladosnorium sphaerospermum KO791); test: Antifungal activity assay (microspectrophotometry), C sphaerospermum; details: 48 h
Candida albicans KA-1 = test: Anti-yeast activity assay, C albicans
[8] = system: Sphacelotheca reiliana HS; test: Antifungal activity assay (microspectrophotometry), S reiliana; details: Medium A (1/2 PDB), 48 h
[9] = system: Verticillium albo-atrum K0937; test: Antifungal activity assay (microspectrophotometry), V albo-atrum; details: 48 h
[10] = system: Septoria tritici (K1097D); test: Antifungal activity assay (microspectrophotometry), S tritici; details: 48 h
Trichoderma viride K1127 = test: Antifungal activity assay (microspectrophotometry), T viride; details: 48 h
[11] = system: A longipes (Alternaria lonaives CBS62083); test: Antifungal activity assay (microspectrophotometry), A longipes; details: 48 h
[12] = system: F graminearum (Fusarium craminearum FR-12); details: Medium A (1/2 PDB), 48 h
Stenocarpella maydis = test: Antifungal activity assay (microspectrophotometry), S maydis; details: Medium A (1/2 PDB), 48 h
[13] = system: B maydis (Bipolaris mavdis HM-10); test: Antifungal activity assay (microspectrophotometry), B maydis; details: Medium A (1/2 PDB), 48 h
[14] = system: C graminicola (Colletotrichum Qraminicola CG-17); test: Antifungal activity assay (microspectrophotometry), C graminicola; details: Medium A (1/2 PDB), 48 h
[15] = system: Botrytis cinerea MUCL 30158; test: Antifungal activity assay (microspectrophotometry), B cinerea; details: 48 h
[16] = system: Bacillus megaterium ATCC 13632; test: Antibacterial activity assay (microspectrophotometry), B megaterium; details: bacterial suspension in soft nutrient agarose, 24 hours at 28° C.
[17] = system: Fusarium culmorum IMI 180420; test: Antifungal activity assay (microspectrophotometry), F culmorum; details: 48 h
plant pathogenic fungi = test: Antifungal potency on different plant pathogenic fungi (summary over the panel); details: high salt medium (medium B)
[18] = Medium B (1/2 PDB + 1 mM CaCl2 and 50 mM KCl)

## Ib-AMP1: Impatiens balsamina antimicrobial protein 1, purified from I balsamina seeds; amino acid sequence SEQ ID NO 10 (QWGRRCCGWGPGRRYCVRWC)
[1]
  IC50 (growth inhibition) V dahliae: 1 µg/mL
[2]
  IC50 (growth inhibition) F moniliforme: 20 µg/mL
[3]
  IC50 (growth inhibition) E coli: > 800 µg/mL
[4]
  IC50 (growth inhibition) S cerevisiae: 20 µg/mL
[5]
  IC50 (growth inhibition) C beticola: 1.5 µg/mL
[6]; Medium A (1/2 PDB)
  IC50 (growth inhibition) P digitatum: 3 µg/mL
[6]; [18]
  IC50 (growth inhibition) P digitatum: 200 µg/mL
[7]; Medium A (1/2 PDB)
  IC50 (growth inhibition) C sphaerospermum: 1.5 µg/mL
[7]; [18]
  IC50 (growth inhibition) C sphaerospermum: 50 µg/mL
Candida albicans KA-1
  IC50 (growth inhibition) C albicans: 10 µg/mL
  effect on the growth of C. albicans (in words): strongly inhibitied
[8]
  IC50 (growth inhibition) S reiliana: 4 µg/mL
[9]; Medium A (1/2 PDB)
  IC50 (growth inhibition) V albo-atrum: 3 µg/mL
[9]; [18]
  IC50 (growth inhibition) V albo-atrum: > 200 µg/mL
[10]; Medium A (1/2 PDB)
  IC50 (growth inhibition) S tritici: 1 µg/mL
[10]; [18]
  IC50 (growth inhibition) S tritici: 50 µg/mL
Trichoderma viride K1127; Medium A (1/2 PDB)
  IC50 (growth inhibition) T viride: 6 µg/mL
Trichoderma viride K1127; [18]
  IC50 (growth inhibition) T viride: > 200 µg/mL
[11]; Medium A (1/2 PDB)
  IC50 (growth inhibition) A longipes: 3 µg/mL
[11]; [18]
  IC50 (growth inhibition) A longipes: 50 µg/mL
[12]
  IC50 (growth inhibition) F graminearum: 3 µg/mL
Stenocarpella maydis
  IC50 (growth inhibition) S maydis: 5 µg/mL
[13]
  IC50 (growth inhibition) B maydis: 7 µg/mL
[14]
  IC50 (growth inhibition) C graminicola: 2 µg/mL
[15]; Medium A (1/2 PDB)
  IC50 (growth inhibition) B cinerea: 12 µg/mL
[15]; [18]
  IC50 (growth inhibition) B cinerea: > 200 µg/mL
[16]
  IC50 (growth inhibition) B megaterium: 10 µg/mL
[17]; Medium A (1/2 PDB)
  IC50 (growth inhibition) F culmorum: 1.5 µg/mL
[17]; [18]
  IC50 (growth inhibition) F culmorum: 50 µg/mL

## Ib-AMP2: Impatiens balsamina antimicrobial protein 2, purified from I balsamina seeds; amino acid sequence SEQ ID NO 11 (QYGRRCCNWGPGRRYCKRWC)
[5]
  IC50 (growth inhibition) C beticola: 3 µg/mL
[6]; Medium A (1/2 PDB)
  IC50 (growth inhibition) P digitatum: 6 µg/mL
[6]; [18]
  IC50 (growth inhibition) P digitatum: > 200 µg/mL
[7]; Medium A (1/2 PDB)
  IC50 (growth inhibition) C sphaerospermum: 6 µg/mL
[7]; [18]
  IC50 (growth inhibition) C sphaerospermum: > 200 µg/mL
[9]; Medium A (1/2 PDB)
  IC50 (growth inhibition) V albo-atrum: 12 µg/mL
[9]; [18]
  IC50 (growth inhibition) V albo-atrum: > 200 µg/mL
Trichoderma viride K1127; Medium A (1/2 PDB)
  IC50 (growth inhibition) T viride: 12 µg/mL
Trichoderma viride K1127; [18]
  IC50 (growth inhibition) T viride: > 200 µg/mL
[11]; Medium A (1/2 PDB)
  IC50 (growth inhibition) A longipes: 12 µg/mL
[11]; [18]
  IC50 (growth inhibition) A longipes: > 200 µg/mL
[15]; Medium A (1/2 PDB)
  IC50 (growth inhibition) B cinerea: 25 µg/mL
[15]; [18]
  IC50 (growth inhibition) B cinerea: > 200 µg/mL
[17]; Medium A (1/2 PDB)
  IC50 (growth inhibition) F culmorum: 6 µg/mL
[17]; [18]
  IC50 (growth inhibition) F culmorum: > 200 µg/mL

## Ib-AMP3: Impatiens balsamina antimicrobial protein 3, purified from I balsamina seeds; amino acid sequence SEQ ID NO 12 (QYRHRCCAWGPGRKYCKRWC)
[6]; Medium A (1/2 PDB)
  IC50 (growth inhibition) P digitatum: 3 µg/mL
[6]; [18]
  IC50 (growth inhibition) P digitatum: 100 µg/mL
[7]; Medium A (1/2 PDB)
  IC50 (growth inhibition) C sphaerospermum: 3 µg/mL
[7]; [18]
  IC50 (growth inhibition) C sphaerospermum: 100 µg/mL
[9]; Medium A (1/2 PDB)
  IC50 (growth inhibition) V albo-atrum: 6 µg/mL
[9]; [18]
  IC50 (growth inhibition) V albo-atrum: > 200 µg/mL
Trichoderma viride K1127; Medium A (1/2 PDB)
  IC50 (growth inhibition) T viride: 12 µg/mL
Trichoderma viride K1127; [18]
  IC50 (growth inhibition) T viride: > 200 µg/mL
[11]; Medium A (1/2 PDB)
  IC50 (growth inhibition) A longipes: 6 µg/mL
[11]; [18]
  IC50 (growth inhibition) A longipes: > 200 µg/mL
[15]; Medium A (1/2 PDB)
  IC50 (growth inhibition) B cinerea: 6 µg/mL
[15]; [18]
  IC50 (growth inhibition) B cinerea: > 200 µg/mL
[17]; Medium A (1/2 PDB)
  IC50 (growth inhibition) F culmorum: 6 µg/mL
[17]; [18]
  IC50 (growth inhibition) F culmorum: 100 µg/mL

## Ib-AMP4: Impatiens balsamina antimicrobial protein 4, purified from I balsamina seeds; amino acid sequence SEQ ID NO 13 (QWGRRCCGWGPGRRYCRRWC)
[6]; Medium A (1/2 PDB)
  IC50 (growth inhibition) P digitatum: 3 µg/mL
[6]; [18]
  IC50 (growth inhibition) P digitatum: 25 µg/mL
[7]; Medium A (1/2 PDB)
  IC50 (growth inhibition) C sphaerospermum: 1 µg/mL
[7]; [18]
  IC50 (growth inhibition) C sphaerospermum: 6 µg/mL
[9]; Medium A (1/2 PDB)
  IC50 (growth inhibition) V albo-atrum: 6 µg/mL
[9]; [18]
  IC50 (growth inhibition) V albo-atrum: 50 µg/mL
[10]; Medium A (1/2 PDB)
  IC50 (growth inhibition) S tritici: 1 µg/mL
[10]; [18]
  IC50 (growth inhibition) S tritici: 12 µg/mL
Trichoderma viride K1127; Medium A (1/2 PDB)
  IC50 (growth inhibition) T viride: 6 µg/mL
Trichoderma viride K1127; [18]
  IC50 (growth inhibition) T viride: 150 µg/mL
Plant pathogenic fungi
  antifungal activity in high salt medium (in words): fairly strong activity
[11]; Medium A (1/2 PDB)
  IC50 (growth inhibition) A longipes: 3 µg/mL
[11]; [18]
  IC50 (growth inhibition) A longipes: 12 µg/mL
[15]; Medium A (1/2 PDB)
  IC50 (growth inhibition) B cinerea: 6 µg/mL
[15]; [18]
  IC50 (growth inhibition) B cinerea: 200 µg/mL
[17]; Medium A (1/2 PDB)
  IC50 (growth inhibition) F culmorum: 1 µg/mL
[17]; [18]
  IC50 (growth inhibition) F culmorum: 6 µg/mL
